Test results taken from patent publication US12421249B2, “Inhibitors of APOL1 and methods of using same” (Vertex Pharmaceuticals Incorporated, priority 2020, dated 2025).

Experiments:
[1] = molecular target: T1, APOL1 G1 (Homo sapiens, UniProt O14791, I384M/S342G); assay: Trypanosoma brucei brucei Lysis Assay Using APOL1 Recombinant Protein (AlamarBlue viability readout); type: cell-based; conditions: Trypanosome Assay; for IC50: IP50 = IC50 for cell proliferation, read-out: Trypanosome Assay IP50; for Emax: read-out: Trypanosome Assay Max Activity (%)
T1 sequence (O14791 28-398 S342G/I384M): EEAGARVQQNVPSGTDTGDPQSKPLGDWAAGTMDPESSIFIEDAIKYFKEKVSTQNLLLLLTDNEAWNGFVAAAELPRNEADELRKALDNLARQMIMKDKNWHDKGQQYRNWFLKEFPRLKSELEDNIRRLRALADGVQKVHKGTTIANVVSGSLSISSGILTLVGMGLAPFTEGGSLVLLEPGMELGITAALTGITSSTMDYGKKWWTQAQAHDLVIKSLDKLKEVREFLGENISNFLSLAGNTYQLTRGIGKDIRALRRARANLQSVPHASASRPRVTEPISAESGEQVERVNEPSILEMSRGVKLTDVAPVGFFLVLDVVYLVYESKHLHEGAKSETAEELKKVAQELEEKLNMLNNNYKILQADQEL
How it was run: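 Percent viability comes from AlamarBlue (resazurin→resorufin) fluorescence interpolated on a standard curve of known parasite numbers, with no-APOL1 wells as 100%. Parasites (Lister 427 bloodstream form, 120,000/well, serum-free assay medium) meet 0.05 μg/mL APOL1 (~EC90). Compounds span a 10-point series, 0.1% DMSO final.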

[2] = molecular target: T2, APOL1 (Homo sapiens, UniProt O14791); assay: Multi-Tox Assay (MultiTox-Fluor Multiplex Cytotoxicity Assay in tet-inducible APOL1 T-REx-HEK293 cells; Table 46 does not say which APOL1 variant G0/G1/G2); type: cell-based; conditions: APOL1 variant not given; for IC50: IP50 = IC50 for cell proliferation
T2 sequence (O14791 1-398 S342G/I384M): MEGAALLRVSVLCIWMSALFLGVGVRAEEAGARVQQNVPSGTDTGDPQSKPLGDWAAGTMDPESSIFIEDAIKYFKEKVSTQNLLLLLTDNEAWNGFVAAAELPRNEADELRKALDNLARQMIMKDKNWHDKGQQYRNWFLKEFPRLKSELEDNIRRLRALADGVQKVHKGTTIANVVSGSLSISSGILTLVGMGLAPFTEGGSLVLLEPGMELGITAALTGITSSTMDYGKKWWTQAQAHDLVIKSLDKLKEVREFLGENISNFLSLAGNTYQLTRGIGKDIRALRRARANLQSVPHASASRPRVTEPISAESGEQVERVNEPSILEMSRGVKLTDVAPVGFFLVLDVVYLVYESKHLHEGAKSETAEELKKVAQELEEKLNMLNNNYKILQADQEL

SMILES | IC50 [1] | Emax [1] | Multi-Tox Assay Max Activity (%) [2] | IC50 [2]
Cc1cccc([C@@H]2C[C@]3(C[C@H](C)N2)OCCc2cc(Cl)sc23)n1 (racemic) [Compound 126] | 50 to 500 nM | 115% | 99.4% | 50 to 500 nM
C[C@H]1C[C@@]2(C[C@@H](c3ccnc(N(C)C)n3)N1)OCCc1cc(Cl)sc12 (racemic) [Compound 127] | 50 to 500 nM | 107% | 99.3% | 50 to 500 nM
CCc1nc([C@@H]2C[C@]3(C[C@H](C)N2)OCCc2cc(Cl)sc23)c[nH]1 (racemic) [Compound 128] | 50 to 500 nM | 107% | 99.3% | 50 to 500 nM
C[C@H]1C[C@@]2(C[C@@H](c3cnc(N4CCN(C)CC4)nc3)N1)OCCc1cc(Cl)sc12 (racemic) [Compound 129] | < 50 nM | 88% | 100.0% | 50 to 500 nM
C[C@H]1C[C@@]2(C[C@@H](c3c[nH]c(C4CC4)n3)N1)OCCc1cc(Cl)sc12 (racemic) [Compound 130] | 50 to 500 nM | 102% | 99.0% | 50 to 500 nM
C[C@H]1C[C@@]2(C[C@@H](c3cc4n(n3)CCCO4)N1)OCCc1cc(Cl)sc12 (racemic) [Compound 131] | 50 to 500 nM | 111% | 99.3% | 50 to 500 nM
Cc1nocc1[C@@H]1C[C@]2(C[C@H](C)N1)OCCc1cc(Cl)sc12 (racemic) [Compound 132] | 50 to 500 nM | 91.5% | 99.3% | 50 to 500 nM
C[C@H]1C[C@@]2(C[C@@H](c3cn(CC(N)=O)nn3)N1)OCCc1cc(Cl)sc12 (racemic) [Compound 133] | 50 to 500 nM | 111% | 99.7% | 50 to 500 nM
Cc1cnc([C@@H]2C[C@]3(C[C@H](C)N2)OCCc2cc(Cl)sc23)o1 (racemic) [Compound 134] | 50 to 500 nM | 96.7% | 99.2% | 50 to 500 nM
Cc1c([C@@H]2C[C@]3(C[C@H](C)N2)OCCc2cc(Cl)sc23)cnn1C (racemic) [Compound 136] | 50 to 500 nM | 100% | – | 50 to 500 nM
COc1cc(O)cc([C@@H]2C[C@]3(C[C@H](C)N2)OCCc2cc(Cl)sc23)c1 (racemic) [Compound 137] | 50 to 500 nM | 84.5% | 98.7% | 50 to 500 nM
Cc1cc([C@@H]2C[C@]3(C[C@H](C)N2)OCCc2cc(Cl)sc23)nc(N(C)C)n1 (racemic) [Compound 138] | 50 to 500 nM | 104% | 98.0% | 50 to 500 nM
Cc1ccnc([C@@H]2C[C@]3(C[C@H](C)N2)OCCc2cc(Cl)sc23)c1 (racemic) [Compound 139] | > 500 nM | 98.3% | 98.0% | 50 to 500 nM
C[C@H]1C[C@@]2(C[C@@H](c3cnc(C4CCOCC4)o3)N1)OCCc1cc(Cl)sc12 (racemic) [Compound 140] | 50 to 500 nM | 102% | 99.7% | 50 to 500 nM
C[C@H]1C[C@@]2(C[C@@H](c3cccc4[nH]c(=O)oc34)N1)OCCc1cc(Cl)sc12 (racemic) [Compound 141] | 50 to 500 nM | 90% | – | 50 to 500 nM
Cc1nn(C)cc1[C@@H]1C[C@]2(C[C@H](C)N1)OCCc1cc(Cl)sc12 (racemic) [Compound 142] | 50 to 500 nM | 83.7% | 99.0% | 50 to 500 nM

SMILES | IC50 [1] | Emax [1] | Multi-Tox Assay Max Activity (%) [2] | IC50 [2]
Cc1nc([C@@H]2C[C@]3(C[C@H](C)N2)OCCc2cc(Cl)sc23)oc1C (racemic) [Compound 144] | 50 to 500 nM | 102% | 98.0% | 50 to 500 nM
COc1ccnc([C@@H]2C[C@]3(C[C@H](C)N2)OCCc2cc(Cl)sc23)n1 (racemic) [Compound 145] | 50 to 500 nM | 88% | – | 50 to 500 nM
C[C@H]1C[C@@]2(C[C@@H](c3cccc(S(C)(=O)=O)c3)N1)OCCc1cc(Cl)sc12 (racemic) [Compound 146] | 50 to 500 nM | 88% | – | 50 to 500 nM
C[C@H]1C[C@@]2(C[C@@H](c3cccc(S(N)(=O)=O)c3)N1)OCCc1cc(Cl)sc12 (racemic) [Compound 147] | 50 to 500 nM | 93.5% | – | 50 to 500 nM
C[C@H]1C[C@@]2(C[C@@H](c3cccc(-c4cn[nH]c4)c3)N1)OCCc1cc(Cl)sc12 (racemic) [Compound 148] | 50 to 500 nM | 92.5% | 97.0% | 50 to 500 nM
C[C@H]1C[C@@]2(C[C@@H](c3cnc4n3CCOC4)N1)OCCc1cc(Cl)sc12 (racemic) [Compound 149] | > 500 nM | 95% | – | 50 to 500 nM
Cc1nc([C@@H]2C[C@]3(C[C@H](C)N2)OCCc2cc(Cl)sc23)[nH]c1C (racemic) [Compound 150] | > 500 nM | 87% | 96.3% | 50 to 500 nM
C[C@H]1C[C@@]2(C[C@@H](c3cccc(=O)[nH]3)N1)OCCc1cc(Cl)sc12 (racemic) [Compound 151] | > 500 nM | 85.7% | – | 50 to 500 nM
C[C@H]1C[C@@]2(C[C@@H](c3ccnn3C)N1)OCCc1cc(Cl)sc12 (racemic) [Compound 152] | > 500 nM | 92.7% | 98.0% | 50 to 500 nM
CCc1c[nH]c([C@@H]2C[C@]3(C[C@H](C)N2)OCCc2cc(Cl)sc23)n1 (racemic) [Compound 153] | > 500 nM | 89.5% | 96.0% | 50 to 500 nM
COc1nn(C)cc1[C@@H]1C[C@]2(C[C@H](C)N1)OCCc1cc(Cl)sc12 (racemic) [Compound 154] | > 500 nM | 96.5% | – | > 500 nM
Cc1coc([C@@H]2C[C@]3(C[C@H](C)N2)OCCc2cc(Cl)sc23)n1 (racemic) [Compound 155] | > 500 nM | 97% | – | 50 to 500 nM
Cc1nc([C@@H]2C[C@]3(C[C@H](C)N2)OCCc2cc(Cl)sc23)c[nH]1 (racemic) [Compound 156] | > 500 nM | 85% | – | > 500 nM
Cc1ncoc1[C@@H]1C[C@]2(C[C@H](C)N1)OCCc1cc(Cl)sc12 (racemic) [Compound 157] | > 500 nM | 95% | 96.3% | 50 to 500 nM
Cc1nn(CCO)cc1[C@@H]1C[C@]2(C[C@H](C)N1)OCCc1cc(Cl)sc12 (racemic) [Compound 158] | > 500 nM | 75.5% | – | > 500 nM
Cc1nc([C@@H]2C[C@]3(C[C@H](C)N2)OCCc2cc(Cl)sc23)cn1C (racemic) [Compound 159] | > 500 nM | 63.5% | – | > 500 nM
